{"source": "ChEMBL document CHEMBL1201862", "about": "“PubChem BioAssay data set” (2004)", "key": {"[1]": {"target": "Dual specificity protein kinase CLK1 (Homo sapiens, UniProt P49759)", "sequence (P49759 whole entry)": "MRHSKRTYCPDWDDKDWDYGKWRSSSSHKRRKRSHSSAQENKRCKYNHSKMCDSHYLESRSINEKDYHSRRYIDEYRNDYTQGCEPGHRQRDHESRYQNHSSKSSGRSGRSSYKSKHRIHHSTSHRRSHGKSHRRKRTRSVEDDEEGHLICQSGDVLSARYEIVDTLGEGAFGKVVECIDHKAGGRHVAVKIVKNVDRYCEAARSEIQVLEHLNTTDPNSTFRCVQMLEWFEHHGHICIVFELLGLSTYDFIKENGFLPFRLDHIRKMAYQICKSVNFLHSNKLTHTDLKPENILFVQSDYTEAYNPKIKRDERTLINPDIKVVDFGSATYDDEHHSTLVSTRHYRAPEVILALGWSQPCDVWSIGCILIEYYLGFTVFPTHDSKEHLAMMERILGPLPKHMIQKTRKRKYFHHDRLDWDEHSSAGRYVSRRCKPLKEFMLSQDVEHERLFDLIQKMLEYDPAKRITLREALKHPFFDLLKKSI", "assay": "inhibition of human CLK1 activity – biochemical, cherry-picked samples, selectivity assay for Dyrk1A inhibitor project, dose response (AID 588811)"}, "[2]": {"target": "Dual specificity tyrosine-phosphorylation-regulated kinase 1A (Rattus norvegicus, UniProt Q63470)", "format": "biochemical, Homo sapiens"}, "[3]": {"assay": "decrease of insulin promoter-GFP reporter – imaging, high-content screening, mouse beta cells (AID 1628)", "format": "functional", "conditions": "MIN6"}, "[4]": {"assay": "MIN6 cell viability loss – mouse insulinoma, cytotoxicity control, dose response (AID 2122);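 note: confirmatory high-throughput counterscreen run to flag cytotoxic compounds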", "format": "functional"}, "INS1": {"test_system": "INS1", "assay": "INS-1E survival protection against cytokine death – cell-based, luminescence, retest, dose response (AID 449756);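 note: cell death triggered by IL-1 beta plus TNF-alpha plus IFN-gamma mixture; protective hits raise ATP signal compared with cytokine alone wells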", "format": "functional", "conditions": "Rattus norvegicus, INS1"}, "[5]": {"target": "Eukaryotic translation initiation factor 4E (Mus musculus, UniProt P63073)", "sequence (P63073 whole entry)": "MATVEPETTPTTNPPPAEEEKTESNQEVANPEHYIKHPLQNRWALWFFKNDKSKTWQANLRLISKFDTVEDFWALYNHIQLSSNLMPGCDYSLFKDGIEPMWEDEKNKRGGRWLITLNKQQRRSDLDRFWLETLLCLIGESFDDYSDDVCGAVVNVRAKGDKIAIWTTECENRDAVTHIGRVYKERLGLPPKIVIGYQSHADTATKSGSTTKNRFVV", "assay": "blockers of eIF4G binding by eIF4E – biochemical, TR-FRET, dose response (AID 855);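 note: potency for disrupting eIF4E binding to eIF4GI seen as loss of FRET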", "format": "functional"}, "Troponin, cardiac muscle": {"target": "Troponin, cardiac muscle (Homo sapiens, UniProt P19429+P45379+P63316)", "assay": "Fluorescence-based biochemical high throughput dose response assay for activators of the calcium sensitivity of cardiac Regulated Thin Filaments (RTF). [Related pubchem assays (depositor defined):AID493008, AID493018, AID504382, AID504383]", "format": "protein-complex assay"}, "Mu-type opioid receptor [6]": {"target": "T1, Mu-type opioid receptor (Homo sapiens, UniProt P35372)", "T1 sequence (P35372 whole entry)": "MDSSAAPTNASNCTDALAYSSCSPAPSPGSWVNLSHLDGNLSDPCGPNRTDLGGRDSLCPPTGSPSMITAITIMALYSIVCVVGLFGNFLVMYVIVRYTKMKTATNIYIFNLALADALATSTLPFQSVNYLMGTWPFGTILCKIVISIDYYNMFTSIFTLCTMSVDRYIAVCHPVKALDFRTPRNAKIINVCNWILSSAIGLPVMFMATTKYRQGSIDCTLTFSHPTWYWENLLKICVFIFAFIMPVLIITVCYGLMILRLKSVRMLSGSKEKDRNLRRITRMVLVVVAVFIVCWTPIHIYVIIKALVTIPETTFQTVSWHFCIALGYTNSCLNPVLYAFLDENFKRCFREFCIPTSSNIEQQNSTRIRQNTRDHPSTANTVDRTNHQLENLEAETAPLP", "assay": "mu opioid receptor activators, image-based, SAR follow-up (AID 2352)", "format": "functional"}, "[7]": {"target": "T2, Delta-type opioid receptor (Homo sapiens, UniProt P41143)", "T2 sequence (P41143 whole entry)": "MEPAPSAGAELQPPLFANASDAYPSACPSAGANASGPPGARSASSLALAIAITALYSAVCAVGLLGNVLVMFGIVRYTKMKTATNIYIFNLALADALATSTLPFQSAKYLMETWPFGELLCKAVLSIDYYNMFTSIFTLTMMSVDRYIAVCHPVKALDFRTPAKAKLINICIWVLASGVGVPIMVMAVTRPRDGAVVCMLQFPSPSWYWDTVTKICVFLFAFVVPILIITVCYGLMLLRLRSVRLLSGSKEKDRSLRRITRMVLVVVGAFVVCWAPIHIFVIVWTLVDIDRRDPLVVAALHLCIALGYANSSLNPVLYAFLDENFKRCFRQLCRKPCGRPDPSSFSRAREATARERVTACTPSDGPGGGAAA", "assay": "DOR agonists, SAR follow-up, image-based (AID 2370)", "format": "functional"}, "[8]": {"target": "T3, Kappa-type opioid receptor (Homo sapiens, UniProt P41145)", "T3 sequence (P41145 whole entry)": "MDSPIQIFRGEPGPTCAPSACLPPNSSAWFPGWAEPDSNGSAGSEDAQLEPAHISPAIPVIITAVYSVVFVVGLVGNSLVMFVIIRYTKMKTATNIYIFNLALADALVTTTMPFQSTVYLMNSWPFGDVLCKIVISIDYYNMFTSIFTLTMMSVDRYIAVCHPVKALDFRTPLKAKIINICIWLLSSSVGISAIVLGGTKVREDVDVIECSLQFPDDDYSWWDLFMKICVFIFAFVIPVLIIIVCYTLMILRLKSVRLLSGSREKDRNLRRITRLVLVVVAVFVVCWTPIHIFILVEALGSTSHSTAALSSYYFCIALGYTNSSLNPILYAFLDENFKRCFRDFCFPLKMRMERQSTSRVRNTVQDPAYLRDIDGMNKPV", "assay": "kappa opioid receptor blockers, image-based, SAR follow-up (AID 2348)", "format": "functional"}, "Mu-type opioid receptor [9]": {"target": "T1, Mu-type opioid receptor", "assay": "mu opioid receptor blockers – image-based, SAR follow-up (AID 2420);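 note: compounds added before stimulation of receptor with agonist DAMGO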", "format": "functional"}, "[10]": {"target": "T3, Kappa-type opioid receptor", "assay": "kappa opioid receptor activation potency – imaging, image-based, SAR follow-up (AID 2359)", "format": "functional"}, "[11]": {"target": "T2, Delta-type opioid receptor", "assay": "delta opioid receptor blockers – image-based, SAR follow-up (AID 2357)", "format": "functional"}, "[12]": {"target": "T3, Kappa-type opioid receptor", "assay": "kappa opioid receptor blockers, cell-based, luminescence, beta-arrestin, SAR follow-up (AID 2285)", "format": "functional"}, "SUMO E1/E2": {"target": "SUMO E1/E2 (Homo sapiens, UniProt P63279+Q9UBE0+Q9UBT2)", "sequence (Q9UBE0 whole entry)": "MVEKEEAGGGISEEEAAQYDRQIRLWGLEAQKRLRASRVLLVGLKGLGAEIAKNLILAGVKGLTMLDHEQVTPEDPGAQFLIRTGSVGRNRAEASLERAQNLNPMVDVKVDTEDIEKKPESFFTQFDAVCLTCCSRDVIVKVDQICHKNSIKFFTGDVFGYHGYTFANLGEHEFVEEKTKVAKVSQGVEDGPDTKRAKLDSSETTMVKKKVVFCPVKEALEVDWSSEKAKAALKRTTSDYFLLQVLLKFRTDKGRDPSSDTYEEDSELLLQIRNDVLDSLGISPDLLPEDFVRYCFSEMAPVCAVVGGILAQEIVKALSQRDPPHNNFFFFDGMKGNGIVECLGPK", "sequence (Q9UBT2 whole entry)": "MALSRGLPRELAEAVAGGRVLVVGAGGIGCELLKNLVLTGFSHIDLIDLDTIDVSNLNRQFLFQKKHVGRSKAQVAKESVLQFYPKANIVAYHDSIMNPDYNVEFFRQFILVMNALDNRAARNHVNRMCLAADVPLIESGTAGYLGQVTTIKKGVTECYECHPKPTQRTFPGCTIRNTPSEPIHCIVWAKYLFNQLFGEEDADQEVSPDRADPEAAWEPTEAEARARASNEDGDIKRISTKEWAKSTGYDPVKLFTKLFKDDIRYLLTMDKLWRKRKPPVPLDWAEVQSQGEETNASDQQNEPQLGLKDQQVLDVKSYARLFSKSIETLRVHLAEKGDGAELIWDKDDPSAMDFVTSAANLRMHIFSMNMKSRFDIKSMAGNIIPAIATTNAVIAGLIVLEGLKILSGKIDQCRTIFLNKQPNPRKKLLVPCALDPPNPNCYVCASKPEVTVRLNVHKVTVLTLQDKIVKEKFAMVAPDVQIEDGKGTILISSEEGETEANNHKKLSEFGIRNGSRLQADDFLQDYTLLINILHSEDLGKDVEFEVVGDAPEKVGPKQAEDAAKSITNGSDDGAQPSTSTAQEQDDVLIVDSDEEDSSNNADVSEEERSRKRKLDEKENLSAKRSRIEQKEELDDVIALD", "sequence (P63279 whole entry)": "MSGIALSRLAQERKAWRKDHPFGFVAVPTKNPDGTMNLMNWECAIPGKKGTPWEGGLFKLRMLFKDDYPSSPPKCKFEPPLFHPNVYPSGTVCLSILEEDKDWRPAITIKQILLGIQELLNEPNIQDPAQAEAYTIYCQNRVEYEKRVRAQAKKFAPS", "assay": "SAR analysis of SUMOylation using HTRF in an in-Vitro dose response assay. [Related pubchem assays (depositor defined):AID2006, AID2011, AID2018, AID2069, AID2658]", "format": "functional"}, "Beta-lactamase [13]": {"target": "Beta-lactamase (Pseudomonas aeruginosa, UniProt Q79MP6)", "sequence (Q79MP6 whole entry)": "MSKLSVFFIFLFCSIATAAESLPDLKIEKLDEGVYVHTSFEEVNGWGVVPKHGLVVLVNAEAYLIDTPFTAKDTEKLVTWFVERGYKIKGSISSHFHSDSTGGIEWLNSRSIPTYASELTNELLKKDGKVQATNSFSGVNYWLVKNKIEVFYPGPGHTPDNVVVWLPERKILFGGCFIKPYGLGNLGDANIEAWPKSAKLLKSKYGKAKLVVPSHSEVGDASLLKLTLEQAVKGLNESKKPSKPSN"}, "Beta-lactamase [14]": {"target": "Beta-lactamase (Salmonella choleraesuis (strain SC-B67), UniProt Q5J463)", "sequence (Q5J463 whole entry)": "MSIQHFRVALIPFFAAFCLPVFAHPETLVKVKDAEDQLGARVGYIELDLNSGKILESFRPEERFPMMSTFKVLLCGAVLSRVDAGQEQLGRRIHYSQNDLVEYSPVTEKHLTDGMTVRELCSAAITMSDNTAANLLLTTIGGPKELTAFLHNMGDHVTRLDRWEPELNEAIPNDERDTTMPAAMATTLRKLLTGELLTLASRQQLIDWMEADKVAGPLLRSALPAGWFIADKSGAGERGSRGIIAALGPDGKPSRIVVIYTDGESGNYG"}, "BJ [15]": {"test_system": "BJ", "assay": "BJ-TERT fibroblast viability loss – cell-based, RAS-independent, luminescence, dose response (AID 1933)", "format": "functional", "conditions": "Homo sapiens"}, "cells [16]": {"assay": "cells", "format": "functional, cell-based"}, "BJ [17]": {"test_system": "BJ", "assay": "cells", "format": "functional, cell-based", "conditions": "Homo sapiens, read-out: EC50"}, "cells [18]": {"assay": "cells", "format": "functional, cell-based", "remark": "listed apart in the source"}, "BJ [19]": {"test_system": "BJ", "assay": "BJ-TERT-LT-ST fibroblast viability loss – cell-based, RAS-independent, luminescence, dose response (AID 1935);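 note: BJ fibroblasts immortalized with TERT plus LT and ST oncogenes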", "format": "functional", "conditions": "Homo sapiens"}, "[20]": {"assay": "DRD fibroblast viability loss – cell-based, non-viral oncogenic, luminescence, dose response (AID 1934)", "format": "functional", "conditions": "Homo sapiens"}, "HEK293": {"test_system": "HEK293", "assay": "EBV LMP1 TES2 canonical NF-kB signalling blockers – cell-based, HEK293, luciferase, cherry-pick, dose response (AID 588343)", "format": "functional", "conditions": "Homo sapiens"}, "Keap1/Nrf2": {"target": "Keap1/Nrf2 (Homo sapiens, UniProt Q14145)", "sequence (Q16236 whole entry)": "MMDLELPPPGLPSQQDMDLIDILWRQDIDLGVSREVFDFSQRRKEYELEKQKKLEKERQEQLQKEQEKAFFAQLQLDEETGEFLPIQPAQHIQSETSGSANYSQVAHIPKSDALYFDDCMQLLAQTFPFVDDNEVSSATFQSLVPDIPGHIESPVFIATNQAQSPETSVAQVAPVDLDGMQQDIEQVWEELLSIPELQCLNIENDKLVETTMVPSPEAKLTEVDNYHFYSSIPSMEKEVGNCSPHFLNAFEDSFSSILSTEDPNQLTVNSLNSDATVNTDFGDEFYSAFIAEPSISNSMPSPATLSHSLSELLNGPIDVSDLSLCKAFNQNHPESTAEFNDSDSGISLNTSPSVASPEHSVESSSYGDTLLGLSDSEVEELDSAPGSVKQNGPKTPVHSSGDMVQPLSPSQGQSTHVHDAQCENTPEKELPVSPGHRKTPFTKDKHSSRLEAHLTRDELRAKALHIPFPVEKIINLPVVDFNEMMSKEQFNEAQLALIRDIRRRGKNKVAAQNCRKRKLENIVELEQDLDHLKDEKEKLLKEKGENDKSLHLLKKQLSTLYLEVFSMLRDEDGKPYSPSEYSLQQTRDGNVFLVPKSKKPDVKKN", "sequence (Q14145 whole entry)": "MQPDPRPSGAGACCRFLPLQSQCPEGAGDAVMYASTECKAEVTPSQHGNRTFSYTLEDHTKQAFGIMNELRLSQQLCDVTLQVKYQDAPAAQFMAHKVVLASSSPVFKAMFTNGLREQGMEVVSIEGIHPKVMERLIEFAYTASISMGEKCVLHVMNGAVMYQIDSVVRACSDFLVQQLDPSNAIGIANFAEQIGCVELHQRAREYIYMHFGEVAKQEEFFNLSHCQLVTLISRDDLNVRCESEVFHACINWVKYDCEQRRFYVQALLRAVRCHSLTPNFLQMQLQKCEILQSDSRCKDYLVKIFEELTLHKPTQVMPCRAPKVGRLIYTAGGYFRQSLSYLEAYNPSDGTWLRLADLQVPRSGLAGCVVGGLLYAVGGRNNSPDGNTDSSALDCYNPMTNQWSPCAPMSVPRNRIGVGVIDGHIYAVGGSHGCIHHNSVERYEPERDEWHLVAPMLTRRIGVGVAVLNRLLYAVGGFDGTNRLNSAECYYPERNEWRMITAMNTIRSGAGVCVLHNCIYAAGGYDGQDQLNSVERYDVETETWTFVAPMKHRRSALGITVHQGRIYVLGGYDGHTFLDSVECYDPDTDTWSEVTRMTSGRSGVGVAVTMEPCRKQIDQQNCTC", "assay": "disruptors of Keap1 binding to Nrf2 peptide – biochemical, fluorescence polarization, cherry-picked samples, dose response (AID 588683)"}}, "note": "Calls of active or inactive are those of the source."}
{"smiles": "Cc1nc(NC(=O)c2ccccc2)sc1-c1csc(NCc2ccco2)n1", "values": [{"measurement": "AC50", "setting": "[1]", "value": "0.579 µM (active)"}, {"measurement": "AC50", "setting": "[2]", "value": "7.53 µM (active)"}]}
{"smiles": "O=C(CSC1=NCCS1)Nc1ccnc2ccccc12", "values": [{"measurement": "IC50", "setting": "[3]", "value": "1.69 µM (active)"}, {"measurement": "IC50", "setting": "[4]", "value": "1.34 µM (active)"}, {"measurement": "AC50", "setting": "INS1", "value": "12.1 µM (active)"}]}
{"smiles": "COC(=O)C1=C(C)NC(=O)C1(Nc1ccc(Cl)cn1)C(F)(F)F", "note": "(stereo not given)", "values": [{"measurement": "IC50", "setting": "[5]", "value": "> 64 µM (inactive)"}]}
{"smiles": "Cc1cc(/C=C2/C(=O)N(C)C(=S)N2C)ccc1N1CCCC1", "values": [{"measurement": "EC50", "setting": "Troponin, cardiac muscle", "value": "1.55 µM (active)"}]}
{"smiles": "O=C(NC(NC(=S)Nc1ccc(Br)cc1)C(Cl)(Cl)Cl)OCc1ccccc1", "note": "(stereo not given)", "values": [{"measurement": "EC50", "setting": "Mu-type opioid receptor [6]", "value": "> 32 µM (inactive)"}, {"measurement": "EC50", "setting": "[7]", "value": "> 32 µM (inactive)"}, {"measurement": "IC50", "setting": "[8]", "value": "> 32 µM (inactive)"}, {"measurement": "IC50", "setting": "Mu-type opioid receptor [9]", "value": "> 32 µM (inactive)"}, {"measurement": "EC50", "setting": "[10]", "value": "> 32 µM (inactive)"}, {"measurement": "IC50", "setting": "[11]", "value": "> 32 µM (inactive)"}, {"measurement": "IC50", "setting": "[12]", "value": "> 10 µM (inactive)"}]}
{"smiles": "Cc1ccc(NC(=S)NC(NC(=O)OCc2ccccc2)C(Cl)(Cl)Cl)c(C)c1", "note": "(stereo not given)", "values": [{"measurement": "EC50", "setting": "Mu-type opioid receptor [6]", "value": "> 32 µM (inactive)"}, {"measurement": "EC50", "setting": "[7]", "value": "> 32 µM (inactive)"}, {"measurement": "IC50", "setting": "[8]", "value": "1.98 µM (active)"}, {"measurement": "IC50", "setting": "Mu-type opioid receptor [9]", "value": "> 32 µM (inactive)"}, {"measurement": "EC50", "setting": "[10]", "value": "> 32 µM (inactive)"}, {"measurement": "IC50", "setting": "[11]", "value": "> 32 µM (inactive)"}, {"measurement": "IC50", "setting": "[12]", "value": "8.74 µM (active)"}]}
{"smiles": "Cc1ccsc1C=Nc1ccccc1O", "values": [{"measurement": "IC50", "setting": "SUMO E1/E2", "value": "> 100 µM (inactive)"}]}
{"smiles": "O=[N+]([O-])c1cc(Nc2nccc(-c3ccc4c(c3)OCO4)n2)cc(C(F)(F)F)c1", "values": [{"measurement": "AC50", "setting": "[1]", "value": "5.45 µM (active)"}]}
{"smiles": "CN(/N=C/c1ccc(-c2ccc([N+](=O)[O-])cc2)o1)c1ccccc1", "values": [{"measurement": "IC50", "setting": "Beta-lactamase [13]", "value": "> 59.6 µM (inactive)"}, {"measurement": "IC50", "setting": "Beta-lactamase [14]", "value": "> 59.6 µM (inactive)"}, {"measurement": "EC50", "setting": "Troponin, cardiac muscle", "value": "1.44 µM (active)"}]}
{"smiles": "CCN(CC)c1ccc(/C=N/NC(=O)c2c(Cl)cnn2C)c(O)c1", "values": [{"measurement": "EC50", "setting": "BJ [15]", "value": "0.97 µM (active)"}, {"measurement": "EC50", "setting": "cells [16]", "value": "6.42 µM (active)"}, {"measurement": "EC50", "setting": "BJ [17]", "value": "5.01 µM (active)"}, {"measurement": "EC50", "setting": "cells [18]", "value": "35.9 µM (active)"}, {"measurement": "EC50", "setting": "BJ [19]", "value": "3.26 µM (active)"}, {"measurement": "EC50", "setting": "[20]", "value": "1.13 µM (active)"}, {"measurement": "AC50", "setting": "HEK293", "value": "4.49 µM (active)"}, {"measurement": "AC50", "setting": "Keap1/Nrf2", "value": "> 52 µM (inactive)"}, {"measurement": "AC50", "setting": "INS1", "value": "0.327 µM (active)"}]}
